Values of other authors as cited in US20260096996A1, “PHARMACEUTICAL COMPOSITIONS OF TRETINOIN AND METHODS OF PRODUCING SUCH COMPOSITIONS” (Douglas Pharmaceuticals Limited, priority 2022, published 2026).

Columns and labels:
[1] = patients treated for APL

CC1=C(/C=C/C(C)=C/C=C/C(C)=C/C(=O)O)C(C)(C)CCC1 [tretinoin, all-trans retinoic acid]
patients experiencing nausea and vomiting [1]: More than half | absolute bioavailability (in vivo): approximately 50% | administered radiolabel recovered in the urine (orally administered, human): approximately two-thirds | radioactivity recovered in the urine (within 72 hours, radiolabeled tretinoin 2.75 mg and 50 mg): approximately 63% | radioactivity appeared in the feces (within 6 days, radiolabeled tretinoin 2.75 mg and 50 mg): 31%
